In ChEMBL document CHEMBL1132006, “Synthesis and biological evaluation of coumarincarboxylic acids as inhibitors of gyrase B. L-rhamnose as an effective substitute for L-noviose” (1999):
In brackets after ≈: the same amount, converted by molar mass.

Legend:
Staphylococcus aureus [1] = assay: In vitro antibacterial activity against Staphylococcus aureus 011GO76 OfloOxaEry-R strain; assay type: functional
Streptococcus pyogenes = assay: In vitro antibacterial activity against Streptococcus pyogenes O2A1UC1 strain
Enterococcus faecium = assay: In vitro antibacterial activity against Enterococcus faecium 02D31P2 VanTeiEry-R strain; assay type: functional
[2] = system: Staphylococcus epidermidis; assay: In vitro antibacterial activity against Staphylococcus epidermidis 012GO39 OxaTei-R strain; assay type: functional
Staphylococcus aureus [3] = assay: In vitro antibacterial activity against Staphylococcus aureus 011HT1 Nov-R strain; assay type: functional
Staphylococcus aureus [4] = assay: In vitro antibacterial activity against Staphylococcus aureus 011HT3 strain; assay type: functional

| MIC (Staphylococcus aureus [1]) [µg/mL] | MIC (Streptococcus pyogenes) [µg/mL] | MIC (Enterococcus faecium) [µg/mL] | MIC [2] [µg/mL] | MIC (Staphylococcus aureus [3]) [µg/mL] | MIC (Staphylococcus aureus [4]) [µg/mL] | SMILES |
| --- | --- | --- | --- | --- | --- | --- |
| 5 (≈ 7.62 µM) | 0.3 (≈ 0.457 µM) | > 40 | 40 (≈ 61 µM) | > 40 | 0.08 (≈ 0.122 µM) | CCCCCCCCCCCCc1cc(O[C@@H]2O[C@@H](C)[C@H](OC)[C@@H](OC(=O)c3ccc(C)[nH]3)[C@H]2O)c(C)c2oc(=O)c(C(=O)O)cc12 |
| > 40 | 40 (≈ 75.5 µM) | > 40 | > 40 | > 40 | > 40 | CO[C@@H]1[C@@H](OC(=O)c2ccc(C)[nH]2)[C@@H](O)[C@H](Oc2ccc3c(C)c(CCC(=O)O)c(=O)oc3c2C)O[C@H]1C |
| > 40 | > 40 | > 40 | > 40 | > 40 | > 40 | COC(=O)Cc1cc(=O)oc2cc(O[C@@H]3O[C@@H](C)[C@H](OC)[C@@H](OC(=O)c4ccc(C)[nH]4)[C@H]3O)ccc12 |
| > 40 | 40 (≈ 82.1 µM) | > 40 | > 40 | > 40 | > 40 | CO[C@@H]1[C@@H](OC(=O)c2ccc(C)[nH]2)[C@@H](O)[C@H](Oc2ccc3cc(C(=O)O)c(=O)oc3c2C)O[C@H]1C |
| 5 (≈ 8.66 µM) | 5 (≈ 8.66 µM) | 20 (≈ 34.6 µM) | 2.5 (≈ 4.33 µM) | > 40 | 2.5 (≈ 4.33 µM) | CO[C@@H]1[C@@H](OC(=O)c2ccc(C)[nH]2)[C@@H](O)[C@H](Oc2cc(Cc3ccccc3)c3cc(C(=O)O)c(=O)oc3c2C)O[C@H]1C |
| > 40 | > 40 | > 40 | > 40 | > 40 | > 40 | CO[C@@H]1[C@@H](OC(=O)c2ccc(C)[nH]2)[C@@H](O)[C@H](Oc2ccc3c(CC(=O)O)cc(=O)oc3c2)O[C@H]1C |

Continued, compound first:

| SMILES | MIC (Staphylococcus aureus [1]) [µg/mL] | MIC (Streptococcus pyogenes) [µg/mL] | MIC (Enterococcus faecium) [µg/mL] | MIC [2] [µg/mL] | MIC (Staphylococcus aureus [3]) [µg/mL] | MIC (Staphylococcus aureus [4]) [µg/mL] |
| --- | --- | --- | --- | --- | --- | --- |
| CO[C@@H]1[C@@H](OC(=O)c2ccc(C)[nH]2)[C@@H](O)[C@H](Oc2ccc3c(CC(=O)O)cc(=O)oc3c2C)O[C@H]1C | 40 (≈ 79.8 µM) | > 40 | > 40 | 10 (≈ 19.9 µM) | > 40 | 10 (≈ 19.9 µM) |
| CCCCCCCc1cc(O[C@@H]2O[C@@H](C)[C@H](OC)[C@@H](OC(=O)c3ccc(C)[nH]3)[C@H]2O)c(C)c2oc(=O)c(C(=O)O)cc12 | 0.3 (≈ 0.512 µM) | 0.3 (≈ 0.512 µM) | 0.6 (≈ 1.02 µM) | 0.3 (≈ 0.512 µM) | 5 (≈ 8.54 µM) | 0.08 (≈ 0.137 µM) |
| CCCCCCCc1cc(O[C@@H]2O[C@@H](C)[C@H](OC)[C@@H](OC(=O)c3ccc(C)[nH]3)[C@H]2O)c(C)c2oc(=O)c(C(=O)NS(=O)(=O)c3ccccc3)cc12 | 0.6 (≈ 0.828 µM) | 0.3 (≈ 0.414 µM) | 2.5 (≈ 3.45 µM) | 0.6 (≈ 0.828 µM) | 2.5 (≈ 3.45 µM) | 0.15 (≈ 0.207 µM) |
| CO[C@@H]1[C@@H](OC(=O)c2ccc(C)[nH]2)[C@@H](O)[C@H](Oc2ccc3c(CC(=O)O)cc(=O)oc3c2C)OC1(C)C | 5 (≈ 9.7 µM) | 10 (≈ 19.4 µM) | > 40 | 2.5 (≈ 4.85 µM) | > 40 | 2.5 (≈ 4.85 µM) |
| CCCCCc1cc(O[C@@H]2OC(C)(C)[C@H](OC)[C@@H](OC(=O)c3ccc(C)[nH]3)[C@H]2O)c(C)c2oc(=O)c(C(=O)O)cc12 | 0.15 (≈ 0.262 µM) | < 0.04 | 0.3 (≈ 0.525 µM) | < 0.04 | 2.5 (≈ 4.37 µM) | < 0.04 |
| CCCCCc1cc(O[C@@H]2O[C@@H](C)[C@H](OC)[C@@H](OC(=O)c3ccc(C)[nH]3)[C@H]2O)c(C)c2oc(=O)c(C(=O)O)cc12 | 2.5 (≈ 4.48 µM) | 1.2 (≈ 2.15 µM) | 2.5 (≈ 4.48 µM) | 0.6 (≈ 1.08 µM) | 20 (≈ 35.9 µM) | 0.6 (≈ 1.08 µM) |
| CO[C@@H]1[C@@H](OC(=O)c2ccc(C)[nH]2)[C@@H](O)[C@H](Oc2ccc3c(C)c(CC(=O)O)c(=O)oc3c2C)O[C@H]1C | > 40 | 40 (≈ 77.6 µM) | > 40 | > 40 | > 40 | > 40 |
| CO[C@@H]1[C@@H](OC(=O)c2ccc(C)[nH]2)[C@@H](O)[C@H](Oc2ccc3c(C(=O)O)cc(=O)oc3c2C)O[C@H]1C | > 40 | > 40 | > 40 | > 40 | > 40 | > 40 |
| CCCc1cc(O[C@@H]2O[C@@H](C)[C@H](OC)[C@@H](OC(=O)c3ccc(C)[nH]3)[C@H]2O)c(C)c2oc(=O)c(C(=O)O)cc12 | 40 (≈ 75.5 µM) | > 40 | > 40 | 10 (≈ 18.9 µM) | > 40 | 10 (≈ 18.9 µM) |
| CO[C@@H]1[C@@H](OC(=O)c2ccc(C)[nH]2)[C@@H](O)[C@H](Oc2ccc3c(O)c(NC(=O)c4ccc(O)c(CC=C(C)C)c4)c(=O)oc3c2Cl)OC1(C)C [CHLOROBIOCIN] | < 0.04 | < 0.04 | – | < 0.04 | 0.15 (≈ 0.215 µM) | < 0.04 |
| CO[C@@H]1[C@@H](OC(N)=O)[C@@H](O)[C@H](Oc2ccc3c(O)c(NC(=O)c4ccc(O)c(CC=C(C)C)c4)c(=O)oc3c2C)OC1(C)C [NOVOBIOCIN] | < 0.04 | 0.15 (≈ 0.245 µM) | 0.3 (≈ 0.49 µM) | 0.08 (≈ 0.131 µM) | 20 (≈ 32.6 µM) | < 0.04 |
